Results published in PubChem BioAssay (NCI).
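Results reflect a 48-hour exposure of cells in 96-well plates to compound at five concentrations. Abbreviation: GI50, concentration required for 50% inhibition of growth. Definition used: TGI = concentration required for complete inhibition of growth.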

Key:
Test in all cases: NCI tumour cell line growth inhibition, 48 h
[1] = test system: DLD-1 colon
[2] = test system: XF 498 CNS
[3] = test system: M19-MEL melanoma
[4] = test system: LXFL 529 NSCLC
[5] = test system: DMS 114 small cell lung
[6] = test system: RXF-631 renal
[7] = test system: SNB-78 CNS
[8] = test system: MDA-N
[9] = test system: HOP-18 NSCLC

Structure (SMILES)	TGI [1] [µM]	TGI [2] [µM]	TGI [3] [µM]	TGI [4] [µM]	TGI [5] [µM]	GI50 [1] [µM]	TGI [6] [µM]	TGI [7] [µM]	TGI [8] [µM]	TGI [9] [µM]
CC(C)OP(=O)(OC(C)C)C(=NCCN=C(NNc1ccc([N+](=O)[O-])cc1)P(=O)(OC(C)C)OC(C)C)NNc1ccc([N+](=O)[O-])cc1	> 100	9.04	> 100	> 100	> 100	–	–	–	–	–
O=C(/C=C\c1ccc(Cl)c(Cl)c1)c1ccc(Cl)cc1Cl	26.8	–	81.1	21.2	–	12.6	> 100	–	–	–
CC(=O)OC1COC(n2ccc3cc(Br)c([N+](=O)[O-])cc32)C(OC(C)=O)C1OC(C)=O (stereo unspecified)	> 100	30.5	> 100	> 100	94.1	–	58.8	84.6	–	–
CN(C)c1ccc(/C=C(\NC(=O)c2ccccc2)c2nc3ncncc3[nH]2)cc1	> 100	> 100	> 100	> 100	> 100	–	> 100	> 100	–	–
C#CC1(O)CCC2C3CCc4cc(Oc5nc(F)nc(-c6c7ccccc7c7sc8ccccc8n67)n5)ccc4C3CC[C@@]21C (stereo partly specified)	> 100	> 100	> 100	> 100	–	–	–	–	–	–
CSc1nc(NC2OCC(OC(C)=O)C(OC(C)=O)C2OC(C)=O)c(N=CC=Nc2c(NC3OCC(OC(C)=O)C(OC(C)=O)C3OC(C)=O)nc(SC)[nH]c2=O)c(=O)[nH]1 (stereo unspecified)	> 100	–	> 100	> 100	> 100	–	> 100	> 100	> 100	> 100
CCc1cc(Cc2cc(CC)c(NC(=O)C(=O)Cc3ccccn3)c(CC)c2Cl)c(Cl)c(CC)c1NC(=O)C(=O)Cc1ccccn1	> 100	> 100	> 100	> 100	> 100	–	–	> 100	–	> 100
c1ccc(COc2cccc3ccc[n+](Cc4ccccc4)c23)cc1	> 100	31.4	16.3	20.3	14.6	–	> 100	–	–	15.4
CCCCCCCCC/C=C1\CCC(CN2CCOCC2)C1=O (stereo unspecified)	3.9	–	10.4	2.95	7.42	–	18.2	15.3	12.7	10.7
O=C1NCC2(CCN(CCCC3(c4ccc(F)cc4)OCCO3)CC2)N1c1ccccc1	–	–	–	–	–	–	–	–	> 100	–
CC(C)(C)OC(=O)N[C@H]1CC2(C=C(Cl)C(=O)C(Cl)=C2)OC1=O	13.4	34.5	30.9	23.8	–	–	30.5	40	35.5	30.4
OCc1ccc(-c2ccc(-c3ccc(CO)s3)o2)s1	> 73.4	0.356	> 100	0.0435	> 100	–	–	–	39.6	32.6
N=Nc1c(OC(=O)Nc2cccc(Cl)c2)[nH]c2ccccc12	–	–	–	–	–	–	–	–	10.1	–
COC(OC)C(C)CC(=O)N(C)C (stereo unspecified)	> 100	> 100	> 100	> 100	> 100	–	–	> 100	–	–
CCOC(=O)C(=C=C=C(c1ccccc1)c1ccccc1)C(=O)OCC	40.7	30.3	37.7	31.4	40.1	–	77	37	–	–
Cc1ccccc1S(=O)(=O)OC1NS(=O)(=O)c2ccccc21 (stereo unspecified)	–	–	–	–	–	–	–	–	> 100	–
CC1(C)C2CCC(=O)C1CC2 (stereo unspecified)	–	–	–	–	–	–	–	–	> 100	–
Cc1ccc(NC(=O)c2cc3cc(N=Nc4ccccc4C(=O)O)ccc3oc2=O)cc1	> 100	85.8	–	–	94.3	–	–	–	–	> 100
Cn1cnc([N+](=O)[O-])c1Sc1nc2ccccc2[nH]1	22.2	18.5	29.7	20.1	21.7	–	–	88	–	> 100
